IC50 data for 33 molecules are collected here from BindingDB's records for doi:10.1021/jm5006226 (Bristol Myers Squibb, 2014).

Structures are written as SMILES.

The nature of this assay: Antagonist activity at P2Y1 receptor in platelet-enriched human plasma assessed as 10 uM ADP-induced platelet aggregation preincubated for 1 min followed by ADP induction measured at 5 mins by aggregometric analysis.
As to `CC1(C)CN(c2ccccc2NC(=O)Nc2nc3ccc(Cl)nc3s2)c2c(O)ccc(Cl)c21`, the half-maximal inhibitory concentration (IC50) (commonly the concentration that inhibits the measured activity by half) was 1400 nM. Under `CC1(C)CN(c2ccccc2NC(=O)Nc2ccc(OC(F)(F)F)cc2)c2c(O)ccc(Cl)c21` stands 870 nM; under `CC(C)(C)CN1CCC2(CC1)CN(c1ccccc1NC(=O)Nc1nc3ccc(Cl)nc3s1)c1c(O)ccc(Cl)c12`, 130 nM. Under `CC1(C)CN(c2ccccc2NC(=O)Nc2ccc(OC(F)(F)F)cc2)c2c(O)cc(F)c(-c3cnc(Cl)cn3)c21` stands 260 nM. For the molecule `CC1(C)CN(c2ccccc2NC(=O)Nc2nc3ccc(Cl)nc3s2)c2c(O)ccc(-c3ccc(F)cc3)c21`, the IC50 is 230 nM. `CC(C)(C)CN1CCC2(CC1)CN(c1ccccc1NC(=O)Nc1ccc(OC(F)(F)F)cc1)c1c(O)cc(F)c(-c3ccc(Cl)cc3)c12`: the IC50 came to 200 nM. Under `CC1(C)CN(c2ccccc2NC(=O)Nc2ccc(OC(F)(F)F)cc2)c2c(O)cc(F)c(-c3ccc(C(F)(F)F)nc3)c21` stands 150 nM; under `CC1(C)CN(c2ccccc2NC(=O)Nc2ccc(OC(F)(F)F)cc2)c2c(O)ccc(-c3ccc(Cl)cc3)c21`, 210 nM. With `CC1(C)CN(c2ccccc2NC(=O)Nc2ccc(OC(F)(F)F)cc2)c2c(O)ccc(-c3ccc(F)cc3F)c21`, the IC50 came out at 160 nM. For the molecule `CCOC(=O)C1(C)CN(c2ccccc2NC(=O)Nc2ccc(OC(F)(F)F)cc2)c2c(O)ccc(Cl)c21` (stereo not drawn), the IC50 is 3100 nM. For `Cc1nc(NC(=O)Nc2ccccc2N2CC(C)(C)c3c(-c4ccc(F)cc4)ccc(O)c32)cs1`, the IC50 was determined as 430 nM. Under `CC1(C)CN(c2ccccc2NC(=O)Nc2ccc(OC(F)(F)F)cc2)c2c(O)cc(F)c(-c3cc(F)nc(F)c3)c21` stands 160 nM; under `CC1(C)CN(c2ccccc2NC(=O)Nc2ccc(OC(F)(F)F)cc2)c2c(O)ccc(-c3ccccc3F)c21`, 80 nM.

As for `CC1(C)CN(c2ccccc2NC(=O)Nc2ccc(OC(F)(F)F)cc2)c2c(O)ccc(-c3ccccc3)c21`, the IC50 came to 180 nM. Under `CC1(C)CN(c2ccccc2NC(=O)Nc2ccc(OC(F)(F)F)cc2)c2c(O)cc(F)c(-c3ccc(Cl)cc3)c21` stands 240 nM.

`CC1(C)CN(c2ccccc2NC(=O)Nc2ccc(OC(F)(F)F)cc2)c2c(O)ccc(-c3cc(F)cc(F)c3)c21`: the IC50 worked out at 180 nM. With `CC1(C)CN(c2ccccc2NC(=O)Nc2ccc(OC(F)(F)F)cc2)c2c(O)c(F)cc(-c3ccc(F)cc3)c21`, the IC50 was 390 nM.

On to `CC(C)CN1CCCC1c1ccc(NC(=O)Nc2ccccc2N2CC(C)(C)c3c(-c4ccc(F)cc4)ccc(O)c32)cc1` (stereo not drawn), for which the IC50 is 50 nM. Under `CC1(C)CN(c2ccccc2NC(=O)Nc2ccc(OC(F)(F)F)cc2)c2c(O)cc(F)c(-c3ncc(F)cn3)c21` stands 950 nM. Under `CC(C)(C)CN1CCC2(CC1)CN(c1ccccc1NC(=O)Nc1ccc(OC(F)(F)F)cc1)c1c(O)cc(F)c(-c3ccc(F)cc3)c12` stands 140 nM; under `CC1(C)CN(c2ccccc2NC(=O)Nc2ccc(OC(F)(F)F)cc2)c2c(O)ccc(-c3cccc(F)c3)c21`, 240 nM; under `CC1(C)CN(c2ccccc2NC(=O)Nc2ccc(OC(F)(F)F)cc2)c2c(O)ccc(-c3ccc(C(F)(F)F)cc3)c21`, 230 nM. Under `CC1(C)CN(c2ccccc2NC(=O)Nc2ccc(OC(F)(F)F)cc2)c2c(O)cc(F)c(-c3ccc(Cl)s3)c21` stands 130 nM; under `CC1(CC(F)(F)F)CN(c2ccccc2NC(=O)Nc2ccc(OC(F)(F)F)cc2)c2c(O)ccc(Cl)c21` (stereo not drawn), 2900 nM; under `CC1(C)CN(c2ccccc2NC(=O)Nc2ccc(OC(F)(F)F)cc2)c2c(O)ccc(-c3ccc(F)cc3)c21`, 160 nM.

With `CC(C)(C)CN1CCCC1c1ccc(NC(=O)Nc2ccccc2N2CC(C)(C)c3c(-c4ccc(F)cc4)ccc(O)c32)cc1` (stereo not drawn), the IC50 was determined as 90 nM. Under `CC1(C)CN(c2ccccc2NC(=O)Nc2ccc(OC(F)(F)F)cc2)c2c(O)cc(F)c(-c3ccc(F)cc3)c21` stands 190 nM; under `CC1(C)CN(c2ccccc2NC(=O)Nc2csc(Cl)n2)c2c(O)ccc(-c3ccc(F)cc3)c21`, 90 nM. Take `CC1(C)CN(c2ccccc2NC(=O)Nc2ccc(OC(F)(F)F)cc2)c2c(O)cc(F)c(-c3ccc(C(F)(F)F)cn3)c21`: the 50% inhibitory concentration (IC50) worked out at 110 nM. `CCOC(=O)C1(C)CN(c2ccccc2NC(=O)Nc2nc3ccc(Cl)nc3s2)c2c(O)ccc(Cl)c21` (stereo not drawn): the IC50 was found to be 610 nM. As for `CC1(C)CN(c2ccccc2NC(=O)Nc2ccc(OC(F)(F)F)cc2)c2c(O)ccc(-c3ccc(F)c(F)c3)c21`, the IC50 came out at 400 nM.

As to `CC(C)(C)CN1CCC2(CC1)CN(c1ccccc1NC(=O)Nc1nc3ccc(Cl)nc3s1)c1c(O)cc(F)c(-c3ccc(F)cc3)c12`, the IC50 was found to be 180 nM. Under `CC1(C)CN(c2ccccc2NC(=O)Nc2ccc(OC(F)(F)F)cc2)c2c(O)c(F)cc(-c3ccc(Cl)cc3)c21` stands 300 nM.
